System: dorsal horn neurones of CCI mice
Experiment: Spontaneous activity of dorsal horn neurones in CCI mice (extracellular recording)
Format: in vivo
Conditions: ESL 100 mg/kg i.p.; for spontaneous activity of dorsal horn neurones, firing rate: 5 preparations
Source text: Adult male BL CB F1 mice, weighing 25-30 g at the time of surgery and 26-38 g at the time of electrophysiological experiments, were used. The baseline paw withdrawal threshold (PWT) was examined using a series of graduated von Frey hairs (see below) on 3 consecutive days before surgery and re-assessed on the 7th and on the 14th days after surgery, before electrophysiological recording. The animals were killed by an overdose of pentobarbitone on completion of the study. The chronic constriction injury (CCI) model was prepared following the standard protocols described previously (Bennett and Xie, 1988). Mice were anaesthetised and the lateral side of the left thigh was shaved and sterilized with 75% ethanol. A small incision of approximately 0.5 cm was made parallel to the femur. The muscle was carefully separated to expose the sciatic nerve. Three loose ligatures were placed on the sciatic nerve with 5-0 suture silk thread at approximately 1 mm intervals. The wound was closed in layers with suture silk 4-0 and the animals were placed in a recovery chamber with the temperature controlled and set at 30° C. A dose of amoxicillin (0.02 mL, 3 mg) was routinely injected i.p. after surgery to prevent infection. The animals were returned to their home cages after complete recovery of consciousness and freedom of movement. For the first 2 days after surgery, the animals were closely monitored at least twice daily and subsequently, at least once daily until compound testing. The baseline PWT was tested for 3 consecutive days before surgery and re-assessed on the 7th and 14th days after surgery to monitor the development of mechanical allodynia. Only those mice showing significant mechanical allodynia (PWT≦0.2 g) were selected for subsequent electrophysiological experiments. After behavioural validation, the mice were re-anaesthetised, body temperature was monitored and controlled within a physiological range via a thermo-blanket system, and the electrocardiogram (ECG) was routinely monitored through a pair of stainless steel needles inserted into the left fore-paw and right hind-paw. A laminectomy was carried out to expose the L2-L6 segments of the spinal cord. In some experiments, spinalisation at the C2-C3 level or section of the L4-L6 dorsal roots of the left side at a site near the root entry zone to the spinal cord, was performed. A protective pool was formed and filled with warm mineral oil to cover the spinal cord and the sectioned roots. Extracellular unitary recordings of spontaneous activity from the spinal dorsal horn neurones were achieved by using a carbon microelectrode driven by an electrode manipulator. The electrical signals were recorded through a CED micro-1401 interface to a PC for later off-line analysis. Recording from a dorsal horn neurone displaying spontaneous electrical discharge was undertaken for a period of at least 10 min for control and 40 min after either vehicle or ESL administration. The suspension was prepared with a vehicle containing 30% DMSO in 0.9% sodium chloride to a dose concentration of 50 mg/mL. The vehicle and ESL were injected intraperitoneally at a volume of 2 mL/kg through a needle connected with a 1 mL syringe placed prior to the experiment. Each animal received only one treatment of either vehicle or ESL (100 mg/kg). Spontaneous activity was counted as firing rate per minute. An average firing rate over 5 min periods, recorded consecutively immediately prior to vehicle injection or ESL was used as control (and standardized as 100%). The average firing rate over a 5 min period recorded 30-35 min after vehicle or ESL injection was used to quantify firing rate following treatment and compared with the control level. Due to the high level of variation in frequency of spontaneous ectopic discharge from preparation to preparation; all data were standardized relative to control. All data were expressed as mean±SEM. A paired Student's t-test (two-way) was used to compare different time points in the same group. […]

## CC(=O)O[C@H]1Cc2ccccc2N(C(N)=O)c2ccccc21 [ESL, S-(−)-10-acetoxy-10,11-dihydro-5H-dibenz/b,f/azepine-5-carboxamide]
Dorsal root (L4-L6) sectioned CCI mice, 30-35 min, P<0.01 vs vehicle
  spontaneous activity, % of control: 29.5±13.3 % of control
Dorsal root (L4-L6) sectioned CCI mice, 30-35 min, control 378.1±85.4, 8 preparations
  spontaneous activity of dorsal horn neurones, average firing rate: 97.5±39.0 imps/min
Intact CCI mice, 30-35 min, P<0.01 vs control
  spontaneous activity, % of control level: 26.3±10.1 % of control
Intact CCI mice, 30-35 min after injection, control 780.7±462.5
  spontaneous activity of dorsal horn neurones, firing rate: 113.6±43.9 imps/min
Spinalised (C2-C3) CCI mice, 30-35 min, P<0.001
  spontaneous activity, % of control levels: 14.8±6.8 % of control
Spinalised (C2-C3) CCI mice, 30-35 min, control 504.5±286.1, P>0.05
  spontaneous activity of dorsal horn neurones, firing rate: 31.2±12.7 imps/min
